Laboratory results published in patent US7132504B2, “Hepatitis C virus inhibitors” (Bristol-Myers Squibb Company, priority 2003, dated 2006).
Where two headings read alike, the source gives them in different places.

Tests used:
[1] = tested on: HCV replicon in Huh7 cells; assay: HCV replicon cell-based assay (FRET); design: species or system HCV strain 1b; conditions: Hepatitis C virus
Text: An HCV replicon whole cell system was established as described by Lohmann V, Korner F, Koch J, Herian U, Theilmann L, Bartenschlager R., Science 285(5424):110–3 (1999). This system enabled us to evaluate the effects of our HCV Protease compounds on HCV RNA replication. Briefly, using the HCV strain 1b sequence described in the Lohmann paper (Assession number:AJ238799), an HCV cDNA was generated encoding the 5′ internal ribosome entry site (IRES), the neomycin resistance gene, the EMCV (encephalomyocarditis viurs)-IRES and the HCV nonstructural proteins, NS3–NS5B, and 3′ non-translated region (NTR). In vitro transcripts of the cDNA were transfected into the human hepatoma cell line, Huh7. […] Resulting cell lines were characterized for positive and negative strand RNA production and protein production over time.
Huh7 cells, constitutively expressing the HCV replicon, were grown in Dulbecco's Modified Eagle Media (DMEM) containing 10% Fetal calf serum (FCS) and 1 mg/ml G418 (Gibco-BRL). Cells were seeded the night before (1.5×10^4 cells/well) in 96-well tissue-culture sterile plates. Compound and no compound controls were prepared in DMEM containing 4% FCS, 1:100 Penicillin/Streptomysin, 1:100 L-glutamine and 5% DMSO in the dilution plate (0.5% DMSO final concentration in the assay). Compound/DMSO mixes were added to the cells and incubated for 4 days at 37° C. After 4 days, plates were rinsed thoroughly with Phosphate-Buffered Saline (PBS) (3 times 150 μl). The cells were lysed with 25 μl of a lysis assay reagent containing the FRET peptide (RET S1, as described for the in vitro enzyme assay). The lysis assay reagent was made from 5× cell Luciferase cell culture lysis reagent (Promega #E153A) diluted to 1× with distilled water, NaCl added to 150 mM final, the FRET peptide diluted to 10 μM final from a 2 mM stock in 100% DMSO. The plate was then placed into the Cytofluor 4000 instrument which had been set to 340 nm excitation/490 nm emission, automatic mode for 21 cycles and the plate read in a kinetic mode. EC50 determinations were carried out as described for the IC50 determinations. […]
The percentage inhibition was calculated using the formula below: […]
The values were graphed and analyzed using XLFit to obtain the EC50 value.

[2] = tested on: human pancreatic chymotrypsin; assay: Specificity assay, chymotrypsin; format: biochemical; conditions: 2 h enzyme-inhibitor pre-incubation
Procedure: (§1) The specificities of compounds of the present invention were determined against a variety of serine proteases: human neutrophil elastase (HNE), porcine pancreatic elastase (PPE) and human pancreatic chymotrypsin and one cysteine protease: human liver cathepsin B. In all cases a 96-well plate format protocol using colorimetric p-nitroaniline (pNA) substrate specific for each enzyme was used as described previously (PCT Patent Application No. WO 00/09543) with some modifications to the serine protease assays. All enzymes were purchased from Sigma while the substrates were from Bachem.
(§2) Each assay included a 2 h enzyme-inhibitor pre-incubation at room temperature followed by addition of substrate and hydrolysis to ˜30% conversion as measured on a Spectramax Pro microplate reader. Compound concentrations varied from 100 to 0.4 μM depending on their potency. […]
(§3) The percentage of inhibition was calculated using the formula: [1−((UVinh−UVblank)/(UVctl−UVblank))]×100 […]

human liver cathepsin B = target: T1, human liver cathepsin B (Homo sapiens, UniProt P07858); assay: Specificity assay, cathepsin B; format: biochemical; conditions: assay interference at higher concentrations
T1 construct: purchased Sigma; host or cells: human liver
Procedure: as §1, §2, §3

## C=CC1C[C@]1(NC(=O)[C@@H]1C[C@@H](Oc2cc(-c3ccccc3)nc3cc(OC)ccc23)CN1C(=O)[C@@H](NC(=O)OC)C(C)(C)C)C(=O)NS(=O)(=O)N(C)Cc1ccccc1 (stereo partly shown) [Compound 9]
[1]; Huh-7, 96 h, 4 days, read-out: Activity Range EC50
  EC50: 150 to 1500 nM
[1]; Huh-7, read-out: EC50 value in the replicon assay
  EC50: 403 nM
[2]
  IC50: > 200000 nM
Human liver cathepsin B
  IC50: > 50000 nM
